# Experimental data reported in patent US7981875B2, “2″ oxo-voruscharin and derivatives thereof” (priority 2002, dated 2011).
# Like-named read-outs stand apart in the source and are kept apart here.
# Key:
# J82 human cancer cells = experiment: Cell cycle kinetics by flow cytometry (propidium iodide); assay type: cell-based; parameters: key to Effect on cell cycle kinetics, G0/G1 / Effect on cell cycle kinetics, S / Effect on cell cycle kinetics, G2/M: n.s. means no significant; ** means highly significant; *** very highly significant
# Protocol: (§1) Cell lines were seeded in flasks (25 cm^2 area) containing 7 ml of culture medium. After 48 hours incubation at 37° C. the cell culture medium was replaced by a fresh medium in which the substance to be tested had been dissolved at the different concentrations required. Uscharin and 2″ oxo-voruscharin were tested at concentrations, which kill 50% and 30% of the cell population, represented by the IC50 and IC30 values, respectively. After 24 or 72 hours of treatment the cells were harvested in suspension, washed in Phosphate Buffer Saline (PBS) at 4° C. and permeabilized with 70% ethanol (at 4° C.) overnight at −20° C. The cells were then washed with PBS and incubated with propidium iodide solution (80 μg/ml) for 30 minutes at 37° C. and afterward at 4° C. overnight. Ribonuclease A (3% V/V) was added to the PI solution to break doubled-stranded RNA. The portrait of the cell cycle was established for each sample. Software incorporated into the flow cytometer was used to define precisely the percentage of cells in the different cell cycle phases. Each cell cycle phase was reported in terms of peak surface and calculated as a percentage. The surface of the entire cell cycle was 100%. Each experiment was carried out 3 times. The mean percentage of each different phase and the standard error of the related mean were calculated. Each cell cycle phase of a given condition was compared with the same cell cycle phase of control. The non-treated cells constituted control.
# (§2) Uscharin and 2″ oxo-voruscharin are highly toxic to human tumor cell lines. The concentrations used in the flow cytometry experiments were chosen in accordance with the MTT results (example 2). Three human cancer cell lines, Hs683, J82, and HCT-15 were tested and doses that killed 30 and 50 percent of the cells were applied to investigate whether uscharin and 2″ oxo-voruscharin promoted an accumulation in one of the cell cycle phases when the cell cultures were treated for 24 or 72 hours with increasing concentrations of the compounds. The IC50 and IC30 values for uscharin and 2″ oxo-voruscharin corresponding to the three tested cell lines are represented in Table E.
# [1] = tested on: HCT-15 human cancer cells; experiment: as above; assay type: cell-based; parameters: key to Effect on cell cycle kinetics, G0/G1 / Effect on cell cycle kinetics, S / Effect on cell cycle kinetics, G2/M: n.s. means no significant; ** means highly significant; *** very highly significant
# Protocol: as §1, §2
# Hs683 human cancer cells = experiment: as above; assay type: cell-based; parameters: key to Effect on cell cycle kinetics, G0/G1 / Effect on cell cycle kinetics, S / Effect on cell cycle kinetics, G2/M: n.s. means no significant; ** means highly significant; *** very highly significant
# Protocol: as §1, §2
# LoVo = experiment: MTT test, overall cell growth; assay type: cell-based, human; conditions: 72 hours of incubation
# Protocol: (§3) In order to characterize the in vitro activities of the compounds according to the invention, MTT tests were carried out. The MTT test, which is a well-known test in the art, is an indirect technique that rapidly measures, i.e. within 5 days, the effect of a given product on the overall cell growth. This test measures the number of metabolically active living cells that are able to transform the MTT product (3-(4,5-dimethylthiazol-2-yl)-2,5 diphenyl tetrazolium bromide), having a yellowish color, to the blue product formazan dye by mitochondrial reduction. The amount of formazan obtained at the end of the experiment is measured with a spectrophotometer and is directly proportional to the number of living cells. Determination of the optical density enables a quantitative measurement of the effect of the investigated compounds as compared to the control condition (untreated cells) and to compare it to other reference compound. In the following examples different compounds according to the invention were tested and compared to the reference compound being uscharin.
# (§4) Six human cancer cell lines, described in Table C, were tested in the presence of compounds according to the invention. These cell lines covered four histological cancer types, being Glioma, colon, lung and bladder cancer. The cells were allowed to grow in 96-well micro wells with a flat bottom with an amount of 100 μl of cell suspension per well in reason to 4000 cells/well depending on cell type. Each cell line was seeded in its own cell culture medium (Table C).
# (§5) After a 24-hour period of incubation at 37° C., the culture medium is replaced by 100 μl of fresh medium in which the compound to be tested has been dissolved at different required concentrations. Different compounds were tested at 10^−9 M, 5×10^−9 M, 10^−8 M, 5×10^−8 M, 10^−7 M, 5×10^−7 M, 10^−6 M, 5×10^−6 M et 10^−5 M. Each experimental condition is carried out in hexaplicate. The compounds tested are 2″ oxo-voruscharin, and compounds B, C, D, E, H and I represented in Table B above.
# (§6) After 72 hours of incubation at 37° C. with the compound (experimental conditions) or without the compound (control condition), the medium was replaced by 100 μl MTT at the concentration of 1 mg/ml dissolved in RPMI. The micro wells were subsequently incubated during 3 hours at 37° C. and centrifuged at 400 g during 10 minutes. The MTT was removed and formazan crystals formed, were dissolved in 100 μl DMSO. The micro wells were shaken for 5 minutes and read on a spectrophotometer at the wavelengths of 570 nm corresponding to the maximum formazan absorbance wavelength, and of 630 nm, which is the background noise wavelength.
# (§7) For each experimental condition, the mean OD associated with the SEM (standard error of the mean) for each condition (6 wells) was calculated. The percentage of remaining living cells in comparison with the control was calculated. Results of these experiments are represented in FIGS. 2 to 8.
# U-373 MG = experiment: MTT test, overall cell growth; assay type: cell-based, human; conditions: U-373, MTT, 72 hours of incubation
# Protocol: as §3, §4, §5, §6, §7
# Hs683 = experiment: MTT test, overall cell growth; assay type: cell-based, human
# Protocol: as §3, §4, §5, §6, §7
# J82 = experiment: MTT test, overall cell growth; assay type: cell-based, human
# Protocol: as §3, §4, §5, §6, §7
# HCT-15 = experiment: MTT test, overall cell growth; assay type: cell-based, human
# Protocol: as §3, §4, §5, §6, §7
# A549 = experiment: MTT test, overall cell growth; assay type: cell-based, human; conditions: 72 hours of incubation
# Protocol: as §3, §4, §5, §6, §7
# [2] = Maximum Tolerated Dose in healthy mice; assay type: in vivo; conditions: single administration in mice, healthy animals, 14 days post-injection
# Protocol: The Maximum Tolerated Dose (MTD) of a given drug is defined as the maximum amount of a drug which can be administered acutely (i.e. in one i.p., i.v., s.c. or per os single dose) to healthy animals, i.e. animals not grafted with tumors. The survival times and weights of the animals are recorded up to 14 days post-injection. Five different doses of each drug are used for the determination of the MTD index. When the MTD index is higher than 160 mg/kg (i.p. administration) the drug is usually considered to be non-toxic, and the highest dose administered to tumor-bearing mice is MTD/2=80 mg/kg. Each experimental group was composed of 3 mice for the determination of the MTD index.
# [3] = Hs683, MTT, 72 hours of incubation, read-out: IC50 value
# [4] = J82, MTT, 72 hours of incubation, read-out: IC50 value
# [5] = HCT-15, MTT, 72 hours of incubation, read-out: IC50 value
smiles,measurement,setting,value
C[C@@H]1CC2(N=CCS2)C2(O)O[C@@H]3C[C@]4(C=O)C5CC[C@]6(C)[C@@H](C7=CC(=O)OC7)CC[C@]6(O)[C@@H]5CC[C@H]4C[C@H]3O[C@@H]2O1 (some centres unmarked) [uscharin],"Effect on cell cycle kinetics, G0/G1","J82 human cancer cells; J82, 24 h",n.s.
same,"Effect on cell cycle kinetics, G2/M","J82 human cancer cells; J82, 24 h",n.s.
same,"Effect on cell cycle kinetics, S","J82 human cancer cells; J82, 24 h",***
same,"Effect on cell cycle kinetics, G0/G1","J82 human cancer cells; J82, 72 h",n.s.
same,"Effect on cell cycle kinetics, G2/M","J82 human cancer cells; J82, 72 h",n.s.
same,"Effect on cell cycle kinetics, S","J82 human cancer cells; J82, 72 h",***
same,"cell cycle, S-population","J82 human cancer cells; J82, independent of the concentrations applied or the timing of treatment",significant increase in the S-population
same,"Effect on cell cycle kinetics, G0/G1","[1]; HCT-15, 24 h",n.s.
same,"Effect on cell cycle kinetics, G2/M","[1]; HCT-15, 24 h",n.s.
same,"Effect on cell cycle kinetics, S","[1]; HCT-15, 24 h",n.s.
same,"Effect on cell cycle kinetics, G0/G1","[1]; HCT-15, 72 h",n.s.
same,"Effect on cell cycle kinetics, G2/M","[1]; HCT-15, 72 h",n.s.
same,"Effect on cell cycle kinetics, S","[1]; HCT-15, 72 h",**
same,"cell cycle, S-phase","[1]; HCT-15, 72 hours, highest concentration tested (4.3×10^−8 M uscharin, 1.2×10^−8 M 2″oxo-voruscharin)",accumulation in S-phase
same,"cell cycle, S-phase","Hs683 human cancer cells; Hs683, 1.7×10^−7 M for 24 and 72 hours, statistically significant",accumulation of cells in S-phase
same,"cell cycle, G2/M-phase","Hs683 human cancer cells; Hs683, 1.7×10^−7 M for 24 hours",significant accumulation in G2/M-phase
same,"Effect on cell cycle kinetics, G0/G1","Hs683 human cancer cells; Hs683, 24 h",n.s.
same,"Effect on cell cycle kinetics, G2/M","Hs683 human cancer cells; Hs683, 24 h",***
same,"Effect on cell cycle kinetics, S","Hs683 human cancer cells; Hs683, 24 h",***
same,"Effect on cell cycle kinetics, G0/G1","Hs683 human cancer cells; Hs683, 72 h",n.s.
same,"Effect on cell cycle kinetics, G2/M","Hs683 human cancer cells; Hs683, 72 h",n.s.
same,"Effect on cell cycle kinetics, S","Hs683 human cancer cells; Hs683, 72 h",***
same,IC50,LoVo; Homo sapiens,0.005 to 0.01 µM
same,IC50,"U-373 MG; Homo sapiens, U373 MG",0.01 to 0.05 µM
same,IC50,"Hs683; Homo sapiens, Hs 683, Hs683, MTT, 72 hours of incubation, read-out: IC50 value",0.001 to 0.005 µM
same,IC50,"Hs683; Homo sapiens, Hs 683, Hs683, Table E, concentration used for flow cytometry, chosen in accordance with MTT results, read-out: IC50",0.17 µM
same,IC30,"Hs683; Hs683, Table E, concentration which kills 30% of the cell population",0.043 µM
same,IC50,"J82; Homo sapiens, J82, MTT, 72 hours of incubation, read-out: IC50 value",5 to 10 µM
same,IC50,"J82; Homo sapiens, J82, Table E, concentration used for flow cytometry, chosen in accordance with MTT results, read-out: IC50",4.3 µM
same,IC30,"J82; J82, Table E, concentration which kills 30% of the cell population",1.7 µM
same,IC30,"HCT-15; HCT-15, Table E, concentration which kills 30% of the cell population",0.0085 µM
same,IC50,"HCT-15; Homo sapiens, HCT-15, MTT, 72 hours of incubation, read-out: IC50 value",0.01 to 0.05 µM
same,IC50,"HCT-15; Homo sapiens, HCT-15, Table E, concentration used for flow cytometry, chosen in accordance with MTT results, read-out: IC50",0.043 µM
same,IC50,A549; Homo sapiens,0.01 to 0.05 µM
"CC1CC2(NC(CC(=O)c3ccccc3)CS2)C2(O)OC3CC4(CO)C(CCC5C4CCC4(C)C(C6=CC(=O)OC6)CCC54O)CC3OC2O1 (single isomer, unassigned) [Compound I]",MTD index,[2],80 mg/kg
same,IC50,LoVo,0.01 to 0.05 µM
same,IC50,U-373 MG,0.01 to 0.05 µM
same,IC50,Hs683; [3],0.001 to 0.005 µM
same,IC50,J82; [4],1 to 5 µM
same,IC50,HCT-15; [5],0.01 to 0.05 µM
same,IC50,A549,0.001 to 0.005 µM
CC1CC2(N=CCS2)C2(O)OC3CC4(CO)C(CCC5C4CCC4(C)C(C6=CC(=O)OC6)CCC54O)CC3OC2O1 (centres unmarked) [Compound D],MTD index,[2],10 mg/kg
same,IC50,LoVo,0.001 to 0.005 µM
same,IC50,U-373 MG,0.01 to 0.05 µM
same,IC50,Hs683; [3],0.001 to 0.005 µM
same,IC50,J82; [4],5 to 10 µM
same,IC50,HCT-15; [5],0.01 to 0.05 µM
same,IC50,A549,0.01 to 0.05 µM
CC(=O)OCC12CC3OC4(O)C(OC(C)CC45NC(=O)CS5)OC3CC1CCC1C2CCC2(C)C(C3=CC(=O)OC3)CCC12O (centres unmarked) [Compound C],MTD index,[2],> 40 mg/kg
same,IC50,LoVo,1 to 5 µM
same,IC50,U-373 MG,1 to 5 µM
same,IC50,Hs683; [3],1 to 5 µM
same,IC50,J82; [4],> 10 µM
same,IC50,HCT-15; [5],1 to 5 µM
same,IC50,A549,1 to 5 µM
"CC1CC2(NC(CC(=O)c3ccccc3)CS2)C2(O)OC3CC4(CO)C(CCC5C4CCC4(C)C(C6=CC(=O)OC6)CCC54O)CC3OC2O1 (single isomer, unassigned) [Compound H]",MTD index,[2],80 mg/kg
same,IC50,LoVo,0.01 to 0.05 µM
same,IC50,U-373 MG,0.01 to 0.05 µM
same,IC50,Hs683; [3],0.001 to 0.005 µM
same,IC50,J82; [4],1 to 5 µM
same,IC50,HCT-15; [5],0.01 to 0.05 µM
same,IC50,A549,0.001 to 0.005 µM
CC(=O)OCC12CC3OC4(O)C(OC(C)CC45N=CCS5)OC3CC1CCC1C2CCC2(C)C(C3=CC(=O)OC3)CCC12O (centres unmarked) [Compound E],IC50,LoVo,1 to 5 µM
same,IC50,U-373 MG,1 to 5 µM
same,IC50,Hs683; [3],1 to 5 µM
same,IC50,J82; [4],> 10 µM
same,IC50,HCT-15; [5],1 to 5 µM
same,IC50,A549,1 to 5 µM
